Experimental data from PubChem BioAssay AID1259407 (Chemical Carcinogenesis Research Information System (CCRIS), 2018).
Activity calls are given as the source filed them. The rule behind the calls is not given here.

Test system: CCRIS mutagenicity, Ames/micronucleus/aberration tests
Assay: CCRIS mutagenicity studies
[1] = Test System: AMES SALMONELLA TYPHIMURIUM, Strain/Indicator: TA100, Metabolic Activation: NONE, Method: PREINCUBATION
[2] = Test System: AMES SALMONELLA TYPHIMURIUM, Strain/Indicator: TA98, Metabolic Activation: NONE, Method: STANDARD PLATE
[3] = Test System: AMES SALMONELLA TYPHIMURIUM, Strain/Indicator: TA100, Metabolic Activation: NONE, Method: STANDARD PLATE
[4] = Test System: AMES SALMONELLA TYPHIMURIUM, Strain/Indicator: TA102, Metabolic Activation: NONE, Method: STANDARD PLATE

## CN(C)c1ccc(/C=C/C=O)cc1
[1]
  mutagenic call: inactive; negative
Test System: AMES SALMONELLA TYPHIMURIUM, Strain/Indicator: TA100, Metabolic Activation: RAT, LIVER, S-9, AROCLOR 1254, Method: PREINCUBATION
  mutagenic call: inactive; negative

## O=[N+]([O-])c1ccc2ccc3cccc([N+](=O)[O-])c3c2c1
Test System: AMES SALMONELLA TYPHIMURIUM, Strain/Indicator: TA98(1,8-DNP6), Metabolic Activation: NONE, Method: STANDARD PLATE
  mutagenic call: active; positive
Test System: AMES SALMONELLA TYPHIMURIUM, Strain/Indicator: TA98(NR), Metabolic Activation: NONE, Method: STANDARD PLATE
  mutagenic call: active; positive
[2]
  mutagenic call: active; positive
[3]
  mutagenic call: active; positive
Test System: AMES SALMONELLA TYPHIMURIUM, Strain/Indicator: YG1021, Metabolic Activation: NONE, Method: STANDARD PLATE
  mutagenic call: active; positive
Test System: AMES SALMONELLA TYPHIMURIUM, Strain/Indicator: YG1024, Metabolic Activation: NONE, Method: STANDARD PLATE
  mutagenic call: active; positive
Test System: AMES SALMONELLA TYPHIMURIUM, Strain/Indicator: YG1026, Metabolic Activation: NONE, Method: STANDARD PLATE
  mutagenic call: active; positive
Test System: AMES SALMONELLA TYPHIMURIUM, Strain/Indicator: YG1029, Metabolic Activation: NONE, Method: STANDARD PLATE
  mutagenic call: active; positive

## CCCCCCC[N+](=O)[O-]
Test System: UDS RAT HEPATOCYTES, Strain/Indicator: THY INCORP, Metabolic Activation: NONE
  mutagenic call: inactive; negative

## OC[C@H]1O[C@@H](n2cnc3c(=S)nc[nH]c32)[C@H](O)[C@@H]1O
[2]
  mutagenic call: inactive; negative
[3]
  mutagenic call: active; positive
[4]
  mutagenic call: inactive; negative
Test System: AMES SALMONELLA TYPHIMURIUM, Strain/Indicator: TA1537, Metabolic Activation: NONE, Method: STANDARD PLATE
  mutagenic call: inactive; negative
Test System: E. COLI, Strain/Indicator: WP2 (HCR), Metabolic Activation: NONE, Method: STANDARD PLATE
  mutagenic call: inactive; negative

## CCOC(=O)NCCOc1ccc(Oc2ccccc2)cc1
Test System: Ames Salmonella typhimurium, Strain/Indicator: TA97, Metabolic Activation: None, Method: Plate incorporation
  mutagenic call: inactive; negative
Test System: Ames Salmonella typhimurium, Strain/Indicator: TA97, Metabolic Activation: None, Method: Preincubation
  mutagenic call: inactive; negative
Test System: Ames Salmonella typhimurium, Strain/Indicator: TA97, Metabolic Activation: Rat, Liver, S-9, Phenobarbital and beta-naphthoflavone, Method: Plate incorporation
  mutagenic call: inactive; negative
Test System: Ames Salmonella typhimurium, Strain/Indicator: TA97, Metabolic Activation: Rat, Liver, S-9, Phenobarbital and beta-naphthoflavone, Method: Preincubation
  mutagenic call: inactive; negative
Test System: Ames Salmonella typhimurium, Strain/Indicator: TA98, Metabolic Activation: None, Method: Plate incorporation
  mutagenic call: inactive; negative
Test System: Ames Salmonella typhimurium, Strain/Indicator: TA98, Metabolic Activation: None, Method: Preincubation
  mutagenic call: inactive; negative
Test System: Ames Salmonella typhimurium, Strain/Indicator: TA98, Metabolic Activation: Rat, Liver, S-9, Phenobarbital and beta-naphthoflavone, Method: Plate incorporation
  mutagenic call: inactive; negative
Test System: Ames Salmonella typhimurium, Strain/Indicator: TA98, Metabolic Activation: Rat, Liver, S-9, Phenobarbital and beta-naphthoflavone, Method: Preincubation
  mutagenic call: inactive; negative
Test System: Ames Salmonella typhimurium, Strain/Indicator: TA100, Metabolic Activation: None, Method: Plate incorporation
  mutagenic call: inactive; negative
Test System: Ames Salmonella typhimurium, Strain/Indicator: TA100, Metabolic Activation: None, Method: Preincubation
  mutagenic call: inactive; negative
Test System: Ames Salmonella typhimurium, Strain/Indicator: TA100, Metabolic Activation: Rat, Liver, S-9, Phenobarbital and beta-naphthoflavone, Method: Plate incorporation
  mutagenic call: inactive; negative
Test System: Ames Salmonella typhimurium, Strain/Indicator: TA100, Metabolic Activation: Rat, Liver, S-9, Phenobarbital and beta-naphthoflavone, Method: Preincubation
  mutagenic call: inactive; negative
Test System: Ames Salmonella typhimurium, Strain/Indicator: TA102, Metabolic Activation: None, Method: Plate incorporation
  mutagenic call: inactive; negative
Test System: Ames Salmonella typhimurium, Strain/Indicator: TA102, Metabolic Activation: None, Method: Preincubation
  mutagenic call: inactive; negative
Test System: Ames Salmonella typhimurium, Strain/Indicator: TA102, Metabolic Activation: Rat, Liver, S-9, Phenobarbital and beta-naphthoflavone, Method: Plate incorporation
  mutagenic call: inactive; negative
Test System: Ames Salmonella typhimurium, Strain/Indicator: TA102, Metabolic Activation: Rat, Liver, S-9, Phenobarbital and beta-naphthoflavone, Method: Preincubation
  mutagenic call: inactive; negative
Test System: Ames Salmonella typhimurium, Strain/Indicator: TA1535, Metabolic Activation: None, Method: Plate incorporation
  mutagenic call: inactive; negative
Test System: Ames Salmonella typhimurium, Strain/Indicator: TA1535, Metabolic Activation: None, Method: Preincubation
  mutagenic call: inactive; negative
Test System: Ames Salmonella typhimurium, Strain/Indicator: TA1535, Metabolic Activation: Rat, Liver, S-9, Phenobarbital and beta-naphthoflavone, Method: Plate incorporation
  mutagenic call: inactive; negative
Test System: Ames Salmonella typhimurium, Strain/Indicator: TA1535, Metabolic Activation: Rat, Liver, S-9, Phenobarbital and beta-naphthoflavone, Method: Preincubation
  mutagenic call: inactive; negative
Test System: Ames Salmonella typhimurium, Strain/Indicator: TA1537, Metabolic Activation: None, Method: Plate incorporation
  mutagenic call: inactive; negative
Test System: Ames Salmonella typhimurium, Strain/Indicator: TA1537, Metabolic Activation: None, Method: Preincubation
  mutagenic call: inactive; negative
Test System: Ames Salmonella typhimurium, Strain/Indicator: TA1537, Metabolic Activation: Rat, Liver, S-9, Phenobarbital and beta-naphthoflavone, Method: Plate incorporation
  mutagenic call: inactive; negative
Test System: Ames Salmonella typhimurium, Strain/Indicator: TA1537, Metabolic Activation: Rat, Liver, S-9, Phenobarbital and beta-naphthoflavone, Method: Preincubation
  mutagenic call: inactive; negative
Test System: Ames Salmonella typhimurium, Strain/Indicator: TA1538, Metabolic Activation: None, Method: Plate incorporation
  mutagenic call: inactive; negative
Test System: Ames Salmonella typhimurium, Strain/Indicator: TA1538, Metabolic Activation: None, Method: Preincubation
  mutagenic call: inactive; negative
Test System: Ames Salmonella typhimurium, Strain/Indicator: TA1538, Metabolic Activation: Rat, Liver, S-9, Phenobarbital and beta-naphthoflavone, Method: Plate incorporation
  mutagenic call: inactive; negative
Test System: Ames Salmonella typhimurium, Strain/Indicator: TA1538, Metabolic Activation: Rat, Liver, S-9, Phenobarbital and beta-naphthoflavone, Method: Preincubation
  mutagenic call: inactive; negative

## Clc1cnc(Oc2ccc(Oc3ncc(Cl)cc3Cl)cc2)c(Cl)c1
[2]
  mutagenic call: inactive; negative
Test System: AMES SALMONELLA TYPHIMURIUM, Strain/Indicator: TA98, Metabolic Activation: RAT, LIVER, S-9, PHENOBARBITAL AND 5,6-BENZOFLAVONE, Method: STANDARD PLATE
  mutagenic call: inactive; negative
Test System: AMES SALMONELLA TYPHIMURIUM, Strain/Indicator: TA98, Method: STANDARD PLATE
  mutagenic call: inactive; negative
[3]
  mutagenic call: inactive; negative
Test System: AMES SALMONELLA TYPHIMURIUM, Strain/Indicator: TA100, Metabolic Activation: RAT, LIVER, S-9, PHENOBARBITAL AND 5,6-BENZOFLAVONE, Method: STANDARD PLATE
  mutagenic call: inactive; negative
Test System: AMES SALMONELLA TYPHIMURIUM, Strain/Indicator: TA100, Method: STANDARD PLATE
  mutagenic call: inactive; negative
[4]
  mutagenic call: inactive; negative
Test System: AMES SALMONELLA TYPHIMURIUM, Strain/Indicator: TA102, Metabolic Activation: RAT, LIVER, S-9, PHENOBARBITAL AND 5,6-BENZOFLAVONE, Method: STANDARD PLATE
  mutagenic call: inactive; negative
Test System: AMES SALMONELLA TYPHIMURIUM, Strain/Indicator: TA102, Method: STANDARD PLATE
  mutagenic call: inactive; negative

## NC1CCN(c2nc3c(cc2F)c(=O)c(C(=O)O)cn3-c2ccc(F)cc2F)C1 (stereo not drawn)
[4]
  mutagenic call: active; positive

## Nc1ccc(NC(=O)c2ccc(N)cc2)cc1
Test System: AMES SALMONELLA TYPHIMURIUM, Strain/Indicator: TA98, Metabolic Activation: NONE, Method: PREINCUBATION
  mutagenic call: inactive; negative
Test System: AMES SALMONELLA TYPHIMURIUM, Strain/Indicator: TA98, Metabolic Activation: RAT LIVER S-9, PHENOBARBITAL AND BETA-NAPHTHOFLAVONE, Method: PREINCUBATION
  mutagenic call: active; positive
[1]
  mutagenic call: inactive; negative
Test System: AMES SALMONELLA TYPHIMURIUM, Strain/Indicator: TA100, Metabolic Activation: RAT LIVER S-9, PHENOBARBITAL AND BETA-NAPHTHOFLAVONE, Method: PREINCUBATION
  mutagenic call: inactive; negative
Test System: AMES SALMONELLA TYPHIMURIUM, Strain/Indicator: TA1535, Metabolic Activation: NONE, Method: PREINCUBATION
  mutagenic call: inactive; negative
Test System: AMES SALMONELLA TYPHIMURIUM, Strain/Indicator: TA1535, Metabolic Activation: RAT LIVER S-9, PHENOBARBITAL AND BETA-NAPHTHOFLAVONE, Method: PREINCUBATION
  mutagenic call: inactive; negative
Test System: AMES SALMONELLA TYPHIMURIUM, Strain/Indicator: TA1537, Metabolic Activation: RAT LIVER S-9, PHENOBARBITAL AND BETA-NAPHTHOFLAVONE, Method: PREINCUBATION
  mutagenic call: active; positive
Test System: E.COLI, Strain/Indicator: WP2UVRA, Metabolic Activation: NONE, Method: PREINCUBATION
  mutagenic call: inactive; negative
Test System: E.COLI, Strain/Indicator: WP2UVRA, Metabolic Activation: RAT LIVER S-9, PHENOBARBITAL AND BETA-NAPHTHOFLAVONE, Method: PREINCUBATION
  mutagenic call: inactive; negative
